Laboratory results: ChEMBL document CHEMBL3885881, “DrugMatrix”

Organism: Rattus norvegicus
Experiment: DrugMatrix - Regimen: Daily Repeat
Type: toxicity, organism-based, Sprague-Dawley
Design: regimen Daily Repeat, gender Male, age 6-8 weeks
Details: in vivo, po, 150 mg/kg, route oral GAVAGE, dose level Low, vehicle .5 % CMC; for ABSOLUTE BASOPHIL / ABSOLUTE EOSINOPHIL / ABSOLUTE LYMPHOCYTE / ABSOLUTE MONOCYTE / ABSOLUTE SEGMENTED NEUTROPHIL / BASOPHIL / EOSINOPHIL / HEMATOCRIT / HEMOGLOBIN / LEUKOCYTE COUNT / LYMPHOCYTE / MEAN CORPUSCULAR HEMOGLOBIN / MEAN CORPUSCULAR HEMOGLOBIN CONCENTRATION / MEAN CORPUSCULAR VOLUME / MONOCYTE / NEUTROPHIL / NUCLEATED RED BLOOD CELLS / PLATELET COUNT: tissue Blood; for ALANINE AMINOTRANSFERASE / ALBUMIN / ALKALINE PHOSPHATASE / ASPARTATE AMINOTRANSFERASE / BLOOD UREA NITROGEN / CARBON DIOXIDE / CHLORIDE / CHOLESTEROL / CREATINE PHOSPHOKINASE / CREATININE / GLUCOSE / LACTATE DEHYDROGENASE / LIPASE / PHOSPHORUS / POTASSIUM / SODIUM / TOTAL BILIRUBIN / TOTAL PROTEIN / URIC ACID: tissue Plasma

## CC(C)(C)NCC(O)COc1cccc2c1CC(O)C(O)C2 (centres undefined) [NADOLOL]
72 h, time 3 day
  ABSOLUTE BASOPHIL: 0 CELLS/uL
  ABSOLUTE EOSINOPHIL: 43.33 CELLS/uL
  ABSOLUTE LYMPHOCYTE: 11948.67 CELLS/uL
  ABSOLUTE MONOCYTE: 0 CELLS/uL
  ABSOLUTE SEGMENTED NEUTROPHIL: 1241.33 CELLS/uL
  BASOPHIL: 0%
  EOSINOPHIL: 0.33%
  HEMATOCRIT: 34.8%
  HEMOGLOBIN: 13.13 G/DL
  LEUKOCYTE COUNT: 13.23 x10E3/uL
  LYMPHOCYTE: 90.33%
  MEAN CORPUSCULAR HEMOGLOBIN: 24.5 pg
  MEAN CORPUSCULAR HEMOGLOBIN CONCENTRATION: 37.73 G/DL
  MEAN CORPUSCULAR VOLUME: 64.87 fL
  MONOCYTE: 0%
  NEUTROPHIL: 9.33%
  NUCLEATED RED BLOOD CELLS: 0 /100WBC
  PLATELET COUNT: 1238.33 x10E3/uL
  ALANINE AMINOTRANSFERASE: 44 u/L
  ALBUMIN: 4.17 G/DL
  ALKALINE PHOSPHATASE: 391.33 u/L
  ASPARTATE AMINOTRANSFERASE: 75.33 u/L
  BLOOD UREA NITROGEN: 17 mg/dL
  CARBON DIOXIDE: 24.67 mmol/L
  CHLORIDE: 104 MEQ/L
  CHOLESTEROL: 82.33 mg/dL
  CREATINE PHOSPHOKINASE: 224 u/L
  CREATININE: 0.22 mg/dL
  GLUCOSE: 176.33 mg/dL
  LACTATE DEHYDROGENASE: 97 u/L
  LIPASE: 8 u/L
  PHOSPHORUS: 14.9 mg/dL
  POTASSIUM: 6.65 MEQ/L
  SODIUM: 146.1 MEQ/L
  TOTAL BILIRUBIN: 0.23 mg/dL
  TOTAL PROTEIN: 6.1 G/DL
  URIC ACID: 2 mg/dL
120 h, time 5 day
  ABSOLUTE BASOPHIL: 0 CELLS/uL
  ABSOLUTE EOSINOPHIL: 50.33 CELLS/uL
  ABSOLUTE LYMPHOCYTE: 8337.33 CELLS/uL
  ABSOLUTE MONOCYTE: 0 CELLS/uL
  ABSOLUTE SEGMENTED NEUTROPHIL: 679 CELLS/uL
  BASOPHIL: 0%
  EOSINOPHIL: 0.67%
  HEMATOCRIT: 35.83%
  HEMOGLOBIN: 13.37 G/DL
  LEUKOCYTE COUNT: 9.07 x10E3/uL
  LYMPHOCYTE: 91.67%
  MEAN CORPUSCULAR HEMOGLOBIN: 24.27 pg
  MEAN CORPUSCULAR HEMOGLOBIN CONCENTRATION: 37.37 G/DL
  MEAN CORPUSCULAR VOLUME: 64.93 fL
  MONOCYTE: 0%
  NEUTROPHIL: 7.67%
  NUCLEATED RED BLOOD CELLS: 0 /100WBC
  PLATELET COUNT: 1254.33 x10E3/uL
  ALANINE AMINOTRANSFERASE: 46.33 u/L
  ALBUMIN: 4.17 G/DL
  ALKALINE PHOSPHATASE: 380.67 u/L
  ASPARTATE AMINOTRANSFERASE: 77.67 u/L
  BLOOD UREA NITROGEN: 14.67 mg/dL
  CARBON DIOXIDE: 29.67 mmol/L
  CHLORIDE: 101 MEQ/L
  CHOLESTEROL: 84.67 mg/dL
  CREATINE PHOSPHOKINASE: 179 u/L
  CREATININE: 0.19 mg/dL
  GLUCOSE: 140.33 mg/dL
  LACTATE DEHYDROGENASE: 101 u/L
  LIPASE: 8.67 u/L
  PHOSPHORUS: 10.8 mg/dL
  POTASSIUM: 6.14 MEQ/L
  SODIUM: 147.83 MEQ/L
  TOTAL BILIRUBIN: 0.27 mg/dL
  TOTAL PROTEIN: 5.93 G/DL
  URIC ACID: 0.8 mg/dL
